ChEMBL document CHEMBL3885861, “Open TG-GATES”

Organism: Rattus norvegicus
Test: Open TG-GATES - Regimen: Single
Format: toxicity, organism-based, Sprague-Dawley
Set-up: regimen Single, gender Male, age 6 weeks
Conditions: in vivo, po, 0 mg/kg, route gavage, dose level Control; for APTT / Bas / Eos / Fbg / Hb / Ht / Lym / MCH / MCHC / MCV / Mono / Neu / PT / Plat / RBC / Ret / WBC: tissue Blood; for KIDNEY_L / KIDNEY_R / KIDNEY_TOTAL: tissue Kidney; for LIVER: tissue Liver; for A/G / ALP / ALT / AST / BUN / CRE / Ca / Cl / DBIL / GLC / IP / K / LDH / Na / PL / RALB / TBIL / TC / TG / TP / gamma-GTP: tissue Plasma

NNC(=O)c1ccncc1 [ISONIAZID]
TERMINAL_BW (3 h): 225.5 g
APTT (3 h): 18.5 s
Bas (3 h): 0%
Eos (3 h): 1%
Fbg (3 h): 232.2 mg/dL
Hb (3 h): 13.5 g/dL
Ht (3 h): 37.8%
Lym (3 h): 80%
MCH (3 h): 21.5 pg
MCHC (3 h): 35.7%
MCV (3 h): 60.3 fL
Mono (3 h): 3%
Neu (3 h): 15.6%
PT (3 h): 11.8 s
Plat (3 h): 121.9 x10_4/uL
RBC (3 h): 627.2 x10_4/ul
Ret (3 h): 8.1%
WBC (3 h): 82.1 x10_2/uL
KIDNEY_L (3 h): 1 g
KIDNEY_R (3 h): 0.9 g
KIDNEY_TOTAL (3 h): 1.9 g
LIVER (3 h): 10.5 g
A/G (3 h): 1.5
ALP (3 h): 945.2 IU/L
ALT (3 h): 34.2 IU/L
AST (3 h): 66 IU/L
BUN (3 h): 10 mg/dL
CRE (3 h): 0.4 mg/dL
Ca (3 h): 10.9 mg/dL
Cl (3 h): 104.2 meq/L
DBIL (3 h): 0.066 mg/dL
GLC (3 h): 195.6 mg/dL
IP (3 h): 8.8 mg/dL
K (3 h): 4.1 meq/L
LDH (3 h): 160 IU/L
Na (3 h): 141.8 meq/L
PL (3 h): 148.2 mg/dL
RALB (3 h): 3.3 g/dL
TBIL (3 h): 0.1 mg/dL
TC (3 h): 80.8 mg/dL
TG (3 h): 90.6 mg/dL
TP (3 h): 5.5 g/dL
gamma-GTP (3 h): 1.2 IU/L
TERMINAL_BW (6 h): 221.6 g
APTT (6 h): 19.9 s
Bas (6 h): 0%
Eos (6 h): 1%
Fbg (6 h): 230 mg/dL
Hb (6 h): 13.5 g/dL
Ht (6 h): 37.6%
Lym (6 h): 80.8%
MCH (6 h): 21.8 pg
MCHC (6 h): 35.8%
MCV (6 h): 60.9 fL
Mono (6 h): 3%
Neu (6 h): 14.6%
PT (6 h): 12.3 s
Plat (6 h): 125.3 x10_4/uL
RBC (6 h): 618.4 x10_4/ul
Ret (6 h): 8%
WBC (6 h): 96.3 x10_2/uL
KIDNEY_L (6 h): 1 g
KIDNEY_R (6 h): 0.9 g
KIDNEY_TOTAL (6 h): 1.9 g
LIVER (6 h): 9.2 g
A/G (6 h): 1.6
ALP (6 h): 976.8 IU/L
ALT (6 h): 31.2 IU/L
AST (6 h): 64.8 IU/L
BUN (6 h): 8.8 mg/dL
CRE (6 h): 0.4 mg/dL
Ca (6 h): 10.4 mg/dL
Cl (6 h): 104.2 meq/L
DBIL (6 h): 0.068 mg/dL
GLC (6 h): 197.6 mg/dL
IP (6 h): 9.8 mg/dL
K (6 h): 4.1 meq/L
LDH (6 h): 156.6 IU/L
Na (6 h): 141.2 meq/L
PL (6 h): 133.8 mg/dL
RALB (6 h): 3.3 g/dL
TBIL (6 h): 0.1 mg/dL
TC (6 h): 78.4 mg/dL
TG (6 h): 52.8 mg/dL
TP (6 h): 5.4 g/dL
gamma-GTP (6 h): 1.2 IU/L
TERMINAL_BW (9 h): 220.2 g
APTT (9 h): 17.3 s
Bas (9 h): 0%
Eos (9 h): 0.8%
Fbg (9 h): 221.8 mg/dL
Hb (9 h): 13.5 g/dL
Ht (9 h): 37.7%
Lym (9 h): 79.2%
MCH (9 h): 21.8 pg
MCHC (9 h): 35.7%
MCV (9 h): 61.1 fL
Mono (9 h): 2%
Neu (9 h): 16.6%
PT (9 h): 12.5 s
Plat (9 h): 120.7 x10_4/uL
RBC (9 h): 617.4 x10_4/ul
Ret (9 h): 7.7%
WBC (9 h): 101.6 x10_2/uL
KIDNEY_L (9 h): 0.9 g
KIDNEY_R (9 h): 0.9 g
KIDNEY_TOTAL (9 h): 1.9 g
LIVER (9 h): 8.6 g
A/G (9 h): 1.7
ALP (9 h): 780 IU/L
ALT (9 h): 31.4 IU/L
AST (9 h): 70 IU/L
BUN (9 h): 9.6 mg/dL
CRE (9 h): 0.4 mg/dL
Ca (9 h): 10.5 mg/dL
Cl (9 h): 104.6 meq/L
DBIL (9 h): 0.066 mg/dL
GLC (9 h): 200.6 mg/dL
IP (9 h): 9.7 mg/dL
K (9 h): 3.8 meq/L
LDH (9 h): 237.4 IU/L
Na (9 h): 142.2 meq/L
PL (9 h): 137.6 mg/dL
RALB (9 h): 3.4 g/dL
TBIL (9 h): 0.1 mg/dL
TC (9 h): 74.8 mg/dL
TG (9 h): 54.6 mg/dL
TP (9 h): 5.4 g/dL
gamma-GTP (9 h): 1 IU/L
TERMINAL_BW (24 h): 234.8 g
APTT (24 h): 18.6 s
Bas (24 h): 0.4%
Eos (24 h): 1.2%
Fbg (24 h): 217.8 mg/dL
Hb (24 h): 13.8 g/dL
Ht (24 h): 38%
Lym (24 h): 76%
MCH (24 h): 22.6 pg
MCHC (24 h): 36.2%
MCV (24 h): 62.3 fL
Mono (24 h): 2.8%
Neu (24 h): 19.2%
PT (24 h): 11.5 s
Plat (24 h): 127.6 x10_4/uL
RBC (24 h): 610 x10_4/ul
Ret (24 h): 7.2%
WBC (24 h): 106 x10_2/uL
KIDNEY_L (24 h): 1 g
KIDNEY_R (24 h): 1 g
KIDNEY_TOTAL (24 h): 2 g
LIVER (24 h): 10.9 g
A/G (24 h): 1.6
ALP (24 h): 930.6 IU/L
ALT (24 h): 34 IU/L
AST (24 h): 68.8 IU/L
BUN (24 h): 14.8 mg/dL
CRE (24 h): 0.4 mg/dL
Ca (24 h): 10.9 mg/dL
Cl (24 h): 103.8 meq/L
DBIL (24 h): 0.058 mg/dL
GLC (24 h): 191 mg/dL
IP (24 h): 7.7 mg/dL
K (24 h): 4.2 meq/L
LDH (24 h): 190.8 IU/L
Na (24 h): 141.8 meq/L
PL (24 h): 154 mg/dL
RALB (24 h): 3.5 g/dL
TBIL (24 h): 0.1 mg/dL
TC (24 h): 80 mg/dL
TG (24 h): 114 mg/dL
TP (24 h): 5.6 g/dL
gamma-GTP (24 h): 1 IU/L
